Test results as given in ChEMBL document CHEMBL3124756, “Hepatitis C virus NS5A replication complex inhibitors. Part 6: Discovery of a novel and highly potent biarylimidazole chemotype with inhibitory activity toward genotypes 1a and 1b replicons” (J Med Chem, 2014).

Key:
[1] = Efflux ratio of permeability from basolateral to apical side over apical to basolateral side in human Caco2 cells; format: ADME, cell-based; details: Caco-2
[2] = Oral bioavailability in rat at 5 mg/kg; format: ADME, organism-based; details: in vivo
[3] = AUC (24 hrs) in rat at 5 mg/kg, po; format: ADME, organism-based; design: time < 24 hr, dose 5 mg/kg, route oral; details: plasma
[4] = Clearance in rat at 2 mg/kg, iv; format: ADME, organism-based; design: dose 2 mg/kg, route intravenous; details: in vivo
[5] = AUC (4 hrs) in rat at 5 mg/kg, po; format: ADME, organism-based; design: time < 4 hr, dose 5 mg/kg, route oral; details: plasma
Hepatitis C virus [6] = assay: Antiviral activity against Hepatitis C virus genotype 1b expressing […] resistant-mutant infected in human HuH7 cells after 72 hrs by FRET assay; format: functional, organism-based, Hepacivirus hominis; details: Huh-7, 72 h
[7] = tested on: Bovine viral diarrhea virus 1; assay: Antiviral activity against Bovine viral diarrhea virus infected in human HuH7 cells by luciferase reporter gene assay; format: functional, organism-based; details: Bovine viral diarrhea virus isolates and strains, Huh-7
[8] = Cytotoxicity against human HuH7 cells infected with HCV genotype 1b after 72 hrs by Alamar blue assay; format: cell-based, Huh-7
Hepatitis C virus [9] = assay: Antiviral activity against Hepatitis C virus genotype 1b infected in human HuH7 cells after 72 hrs by FRET assay; format: functional, organism-based, Hepacivirus hominis; details: Huh-7, 72 h
Hepatitis C virus [10] = assay: Antiviral activity against Hepatitis C virus genotype 1a infected in human HuH7 cells after 5 days by ELISA; format: functional, organism-based, Hepacivirus hominis; details: subtype 1a, Huh-7, 120 h
[11] = Drug metabolism in assay medium assessed as parent compound level at 5 uM after 48 hrs by LC/MS analysis; format: physicochemical
Hepatitis C virus [12] = assay: Antiviral activity against Hepatitis C virus genotype 1a infected in human HuH7 cells after 72 hrs by FRET assay; format: functional, organism-based, Hepacivirus hominis; details: subtype 1a, Huh-7, 72 h
[13] = Metabolic stability in rat microsomes assessed as compound remaining after 10 mins; format: ADME, microsome; details: liver microsomes, read-out: Stability
[14] = Metabolic stability in human liver microsomes assessed as compound remaining after 10 mins; format: ADME; details: read-out: Stability
Hepatitis C virus [15] = assay: Antiviral activity against Hepatitis C virus genotype 5a infected in human HuH7 cells by FRET assay; format: functional, organism-based, Hepacivirus hominis; details: Huh-7
Hepatitis C virus [16] = assay: Antiviral activity against Hepatitis C virus genotype 4a infected in human HuH7 cells by FRET assay; format: functional, organism-based, Hepacivirus hominis; details: Huh-7
Hepatitis C virus [17] = assay: Antiviral activity against Hepatitis C virus genotype 3a YH infected in human HuH7 cells by FRET assay; format: functional, organism-based, Hepacivirus hominis; details: subtype 3a YH, Huh-7
Hepatitis C virus [18] = assay: Antiviral activity against Hepatitis C virus genotype 3a infected in human HuH7 cells by FRET assay; format: functional, organism-based, Hepacivirus hominis; details: Huh-7
Hepatitis C virus [19] = assay: Antiviral activity against Hepatitis C virus genotype 2a J6 infected in human HuH7 cells by FRET assay; format: functional, organism-based, Hepacivirus hominis; details: subtype 2a J6, Huh-7

## COC(=O)N[C@@H](C(=O)N1CCC[C@H]1c1nc2cc(C#Cc3ccc4[nH]c([C@@H]5CCCN5C(=O)[C@H](NC(=O)OC)c5ccccc5)nc4c3)ccc2[nH]1)c1ccccc1
[1]
  efflux ratio: ≥ 7.2
[2]
  bioavailability: < 1%
[3]
  AUC at 24 h: 0.539 µM·h
[4]
  clearance: 1.1 mL/min/kg
[5]
  AUC at 4 h: 0.466 µM·h
Hepatitis C virus [6]
  EC50: > 3330 nM
[7]
  EC50: > 10000 nM
[8]
  CC50 at 72 h: > 10000 nM
Hepatitis C virus [9]
  EC50: 0.055 nM
Hepatitis C virus [10]
  EC50: 108 nM

## O=C(Cc1ccccc1)N1CCC[C@H]1c1nc2cc(C#Cc3ccc4oc([C@@H]5CCCN5C(=O)Cc5ccccc5)nc4c3)ccc2o1
[11]
  Drug metabolism: Active
[7]
  EC50: 412 nM
[8]
  CC50 at 72 h: > 10000 nM
Hepatitis C virus [9]
  EC50: > 1000 nM
Hepatitis C virus [10]
  EC50: > 1000 nM

## CN(C)[C@@H](C(=O)N1CCC[C@H]1c1nc2cc(C#Cc3ccc4oc([C@@H]5CCCN5C(=O)[C@@H](c5ccccc5)N(C)C)nc4c3)ccc2o1)c1ccccc1
[7]
  EC50: 1390 nM
[8]
  CC50 at 72 h: 4450 nM
Hepatitis C virus [9]
  EC50: > 1000 nM
Hepatitis C virus [10]
  EC50: > 1000 nM

## O=C(Cc1ccccc1)N1CCC[C@H]1c1nc2ccc(C#Cc3ccc4nc([C@@H]5CCCN5C(=O)Cc5ccccc5)oc4c3)cc2o1
[11]
  Drug metabolism: Active
[7]
  EC50: 7980 nM
[8]
  CC50 at 72 h: > 10000 nM
Hepatitis C virus [9]
  EC50: > 1000 nM
Hepatitis C virus [10]
  EC50: > 1000 nM

## CN(C)[C@@H](C(=O)N1CCC[C@H]1c1nc2ccc(C#Cc3ccc4nc([C@@H]5CCCN5C(=O)[C@@H](c5ccccc5)N(C)C)oc4c3)cc2o1)c1ccccc1
Hepatitis C virus [6]
  EC50: > 1000 nM
[7]
  EC50: 390 nM
[8]
  CC50 at 72 h: 2720 nM
Hepatitis C virus [9]
  EC50: < 4.6 nM
Hepatitis C virus [10]
  EC50: > 1000 nM

## CN(C)[C@@H](C(=O)N1CCC[C@H]1C(=O)Nc1ccc(-c2cnc(-c3ccc(NC(=O)[C@@H]4CCCN4C(=O)[C@@H](c4ccccc4)N(C)C)cc3)o2)cc1)c1ccccc1
[7]
  EC50: 1570 nM
[8]
  CC50 at 72 h: 6010 nM
Hepatitis C virus [9]
  EC50: 677 nM
Hepatitis C virus [12]
  EC50: 568 nM

## CN(C)[C@@H](C(=O)N1CCC[C@H]1c1nc2cc(-c3cnc(-c4ccc5[nH]c([C@@H]6CCCN6C(=O)[C@@H](c6ccccc6)N(C)C)nc5c4)o3)ccc2[nH]1)c1ccccc1
[7]
  EC50: 4960 nM
[8]
  CC50 at 72 h: > 10000 nM
Hepatitis C virus [9]
  EC50: < 4.6 nM
Hepatitis C virus [10]
  EC50: 973 nM

## CN(C)[C@@H](C(=O)N1CCC[C@H]1C(=O)Nc1cccc(-c2ncc(-c3ccc4nc([C@@H]5CCCN5C(=O)[C@@H](c5ccccc5)N(C)C)[nH]c4c3)o2)c1)c1ccccc1
Hepatitis C virus [6]
  EC50: > 1000 nM
[7]
  EC50: 3090 nM
[8]
  CC50 at 72 h: 8610 nM
Hepatitis C virus [9]
  EC50: 0.14 nM
Hepatitis C virus [10]
  EC50: 3.5 nM

## CN(C)[C@@H](C(=O)N1CCC[C@H]1C(=O)Nc1cccc(-c2cnc(-c3cccc(NC(=O)[C@@H]4CCCN4C(=O)[C@@H](c4ccccc4)N(C)C)c3)o2)c1)c1ccccc1
[7]
  EC50: 1160 nM
[8]
  CC50 at 72 h: 4730 nM
Hepatitis C virus [9]
  EC50: 0.16 nM
Hepatitis C virus [12]
  EC50: 738 nM

## CN(C)[C@@H](C(=O)N1CCC[C@H]1C(=O)Nc1ccc(-c2cnc(-c3cccc(NC(=O)[C@@H]4CCCN4C(=O)[C@@H](c4ccccc4)N(C)C)c3)o2)cc1)c1ccccc1
[7]
  EC50: 1220 nM
[8]
  CC50 at 72 h: 5760 nM
Hepatitis C virus [9]
  EC50: 0.39 nM
Hepatitis C virus [12]
  EC50: 1.6 nM

## O=C(Cc1ccccc1)N1CCC[C@H]1c1ncc(-c2ccc(-c3ccc(-c4cnc([C@@H]5CCCN5C(=O)Cc5ccccc5)[nH]4)cc3)cc2)[nH]1
[7]
  EC50: 596 nM
[8]
  CC50 at 72 h: > 10000 nM
Hepatitis C virus [9]
  EC50: 0.33 nM
Hepatitis C virus [12]
  EC50: 283 nM

## COC(=O)N[C@@H](C(=O)N1CCC[C@H]1c1ncc(-c2ccc(-c3ccc(-c4cnc([C@@H]5CCCN5C(=O)[C@H](NC(=O)OC)c5ccccc5)[nH]4)cc3)cc2)[nH]1)c1ccccc1
[13]
  remaining at 10 min: 100%
[14]
  remaining at 10 min: 100%
Hepatitis C virus [15]
  EC50: 0.014 nM
Hepatitis C virus [16]
  EC50: 0.0057 nM
Hepatitis C virus [17]
  EC50: 4.4 nM
Hepatitis C virus [18]
  EC50: 0.004 nM
Hepatitis C virus [19]
  EC50: 0.023 nM
[4]
  clearance: 11.1 mL/min/kg
Hepatitis C virus [6]
  EC50: 166 nM
[7]
  EC50: 1460 nM
[8]
  CC50 at 72 h: > 10000 nM
Hepatitis C virus [9]
  EC50: 0.0067 nM
Hepatitis C virus [10]
  EC50: 0.028 nM

## CN(C)C(C(=O)N1CCC[C@H]1C(=O)Nc1ccc(-c2ncc(-c3ccc4[nH]c([C@@H]5CCCN5C(=O)[C@@H](c5ccccc5)N(C)C)nc4c3)o2)cc1)c1ccccc1 (single isomer, unassigned)
[7]
  EC50: > 370 nM
[8]
  CC50 at 72 h: > 10000 nM
Hepatitis C virus [9]
  EC50: 0.077 nM
Hepatitis C virus [10]
  EC50: 251 nM
